In brackets after ≈: the same amount, converted by molar mass.
Columns and labels:
Format in all cases: cell-based
[1] = system: A. fumigatus s 1008; assay: In vitro MIC, NCCLS M38P broth method (RPMI 1640/MOPS pH7), Aspergillus fumigatus; settings: A. fumigatus strain 1008
[2] = system: Candida; assay: In vitro MIC, NCCLS M27A, Candida species; set-up: MIC, Candida albicans 1.549 / MIC, Candida albicans Y-01-19 / MIC, C. krusei 766-1 / MIC, C. krusei Q. C / MIC, Candida tropicalis ATCC / MIC, C. glabrata 90030: unit not given beside the values; MIC, Candida albicans A 26 / MIC, C. parapsilosis Q. C.: unit not given here; settings: for MIC, C. glabrata 90030: C. glabrata strain 90030; for MIC, C. krusei 766-1: C. krusei strain 766-1; for MIC, C. krusei Q. C: C. krusei strain Q. C; for MIC, C. parapsilosis Q. C.: C. parapsilosis strain Q. C.; for MIC, Candida albicans 1.549: Candida albicans strain 1.549; for MIC, Candida albicans A 26: Candida albicans strain A 26; for MIC, Candida albicans Y-01-19: Candida albicans strain Y-01-19
[3] = system: Histoplasma capsulatum
[4] = system: Cryptococcus neoformans; assay: In vitro MIC, NCCLS M27A, Cryptococcus neoformans; set-up: MIC, C. neoformans I: unit not given beside the values; MIC, C. neoformans M 106: unit not given here; settings: for MIC, C. neoformans I: C. neoformans strain I; for MIC, C. neoformans M 106: C. neoformans strain M 106

| SMILES | MIC, A. fumigatus 1008 [1] | MIC, C. glabrata 90030 [2] | MIC, C. krusei 766-1 [2] | MIC, C. krusei Q. C [2] | MIC, C. parapsilosis Q. C. [2] | MIC, Candida albicans 1.549 [2] | MIC, Candida albicans A 26 [2] | MIC, Candida albicans Y-01-19 [2] | MIC, Candida tropicalis ATCC [2] | MIC, H. capsulatum [3] [µg/mL] | MIC, C. neoformans I [4] | MIC, C. neoformans M 106 [4] |
| --- | --- | --- | --- | --- | --- | --- | --- | --- | --- | --- | --- | --- |
| C[C@@H](n1ncn(-c2ccc(N3CCN(c4ccc([N+](=O)[O-])cc4[N+](=O)[O-])CC3)cc2)c1=O)[C@@](O)(Cn1cncn1)c1ccc(F)cc1F [Compound 4, 2-{[1R2S/1S2R]-2-(2,4-Difluorophenyl)-2-hydroxy-1-methyl-3-(1H-1,2,4-triazol-1-yl)propyl}-4-{4-[4-(2,4-dinitrophenyl)-1-piperazinyl]phenyl}-3-(2H,4H)-1,2,4-triazolone] | >16 | 2.00 | >16 | >16 | 0.25 | 4.00 | <0.03 | >16 | <0.03 | 0.5 (≈ 0.755 µM) | 0.25 | 1.00 |
| CCc1ccccc1N1CCN(c2ccc(-n3c(C)nn([C@H](C)[C@@](O)(Cn4cncn4)c4ccc(F)cc4F)c3=O)cc2)CC1 [Compound 32, 2-{[1R2S/1S2R]-2-(2,4-Difluorophenyl)-2-hydroxy-1-methyl-3-(1H-1,2,4-triazol-1-yl)propyl}-4-{4-[4-(2-ethylphenyl)-1-piperazinyl]phenyl}-3-(2H,4H)-5-methyl-1,2,4-triazolone] | >16 | 2.00 | >16 | 4.00 | 0.50 | >16 | <0.03 | 4.00 | <0.03 | 0.25 (≈ 0.407 µM) | 0.50 | 0.50 |
| COc1ccc(F)cc1N1CCN(c2ccc(-n3cnn(CC(O)(Cn4cncn4)c4ccc(F)cc4F)c3=O)cc2)CC1 (stereo not drawn) [Compound 59, 2-[2-(2,4-Difluorophenyl)-2-hydroxy-3-(1H-1,2,4-triazol-1-yl)propyl]-4-{4-[4-(2-methoxy-5-fluorophenyl)-1-piperazinyl]phenyl}-3-(2H,4H)-1,2,4-triazolone] | >16 | 1.00 | 4.00 | 1.00 | <0.03 | 1.00 | <0.03 | 0.50 | <0.03 | < 0.03 | <0.03 | 0.12 |
| C[C@@H](n1ncn(-c2ccc(N3CCN(c4ccc(Cl)cc4)CC3)cc2)c1=O)[C@@](O)(Cn1cncn1)c1ccc(F)cc1F [Compound 2, 2-{[1R2S/1S2R]-2-(2,4-Difluorophenyl)-2-hydroxy-1-methyl-3-(1H-1,2,4-triazol-1-yl)propyl}-4-{4-[4-(4-chlorophenyl)-1-piperazinyl]phenyl}-3-(2H,4H)-1,2,4-triazolone] | >16 | 0.50 | 2.00 | 1.00 | <0.03 | 1.00 | <0.03 | 0.25 | <0.03 | < 0.03 | <0.03 | <0.03 |
| Cc1nn(CC(O)(Cn2cncn2)c2ccc(F)cc2F)c(=O)n1-c1ccc(N2CCN(c3ccc(F)cc3)CC2)cc1 (stereo not drawn) [Compound 36, 2-[2-(2,4-Difluorophenyl)-2-hydroxy-3-(1H-1,2,4-triazol-1-yl)propyl]-4-{4-[4-(4-fluorophenyl)-1-piperazinyl]phenyl}-3-(2H,4H)-5-methyl-1,2,4-triazolone] | >12.5 | 3.12 | 3.12 | 1.56 | <0.02 | 0.20 | <0.02 | 0.40 | <0.02 | < 0.02 | 0.20 | 0.40 |
| O=c1n(-c2ccc(N3CCN(c4ccccc4)CC3)cc2)cnn1CC(O)(Cn1cncn1)c1ccc(F)cc1F (stereo not drawn) [Compound 45, 2-[2-(2,4-Difluorophenyl)-2-hydroxy-3-(1H-1,2,4-triazol-1-yl)propyl]-4-{4-[1-phenyl-1-piperazinyl]phenyl}-3-(2H,4H)-1,2,4-triazolone] | >12.5 | 0.10 | 0.80 | 0.10 | <0.02 | 0.05 | <0.02 | 0.05 | 3.12 | 3.12 (≈ 5.59 µM) | <0.02 | 0.10 |
| Cc1ccc(N2CCN(c3ccc(-n4cnn([C@H](C)[C@@](O)(Cn5cncn5)c5ccc(F)cc5F)c4=O)cc3)CC2)c(C)c1 [Compound 20, 2-{[1R2S/1S2R]-2-(2,4-Difluorophenyl)-2-hydroxy-1-methyl-3-(1H-1,2,4-triazol-1-yl)propyl}-4-{4-[4-(2,4-dimethylphenyl)-1-piperazinyl]phenyl}-3-(2H,4H)-1,2,4-triazolone] | >16 | 2.00 | >16 | 2.00 | 0.12 | 8.00 | <0.03 | 2.00 | <0.03 | 0.5 (≈ 0.832 µM) | 0.25 | 0.25 |
| CCc1ccccc1N1CCN(c2ccc(-n3c(C)nn([C@H](C)[C@](O)(Cn4cncn4)c4ccc(F)cc4F)c3=O)cc2)CC1 [Compound 31, 2-{[1R2R/1S2S]-2-(2,4-Difluorophenyl)-2-hydroxy-1-methyl-3-(1H-1,2,4-triazol-1-yl)propyl}-4-{4-[4-(2-ethylphenyl)-1-piperazinyl]phenyl}-3-(2H,4H)-5-methyl-1,2,4-triazolone] | 1.00 | 0.50 | 0.50 | 0.12 | <0.03 | >16 | <0.03 | 0.12 | <0.03 | 0.06 (≈ 0.0976 µM) | <0.03 | <0.03 |
| C[C@@H](n1ncn(-c2ccc(N3CCN(c4ccc(Cl)cc4)CC3)cc2)c1=O)[C@](O)(Cn1cncn1)c1ccc(F)cc1F [Compound 1, 2-{[1R2R/1S2S]-2-(2,4-Difluorophenyl)-2-hydroxy-1-methyl-3-(1H-1,2,4-triazol-1-yl)propyl}-4-{4-[4-(4-chlorophenyl)-1-piperazinyl]phenyl}-3-(2H,4H)-1,2,4-triazolone] | 0.12 | 0.25 | 0.25 | 0.12 | <0.03 | 0.12 | <0.03 | 0.12 | <0.03 | 0.06 (≈ 0.0988 µM) | <0.03 | <0.03 |
| C[C@@H](n1ncn(-c2ccc(N3CCN(c4ccc(F)c(Cl)c4)CC3)cc2)c1=O)[C@@](O)(Cn1cncn1)c1ccc(F)cc1F [Compound 16, 2-{[1R2S/1S2R]-2-(2,4-Difluorophenyl)-2-hydroxy-1-methyl-3-(1H-1,2,4-triazol-1-yl)propyl}-4-{4-[4-(3-chloro-4-fluorophenyl)-1-piperazinyl]phenyl}-3-(2H,4H)-1,2,4-triazolone] | >16 | 0.50 | >16 | 1.00 | 0.06 | 4.00 | <0.03 | 1.00 | <0.03 | 0.5 (≈ 0.8 µM) | 0.12 | 0.12 |
| Cc1nn(CC(O)(Cn2cncn2)c2ccc(F)cc2F)c(=O)n1-c1ccc(N2CCN(c3ccc(Cl)cc3)CC2)cc1 (stereo not drawn) [Compound 46, 2-[2-(2,4-Difluorophenyl)-2-hydroxy-3-(1H-1,2,4-triazol-1-yl)propyl]-4-{4-[4-(4-chlorophenyl)-1-piperazinyl]phenyl}-3-(2H,4H)-5-methyl-1,2,4-triazolone] | >12.5 | 6.25 | 3.12 | 0.80 | <0.02 | 0.40 | <0.02 | 0.40 | 0.05 | 0.1 (≈ 0.165 µM) | 0.05 | 0.40 |
